Laboratory results published in PMC3283556, “The Activities of Current Antimalarial Drugs on the Life Cycle Stages of Plasmodium: A Comparative Study with Human and Rodent Parasites” (PLoS Medicine, 2012).
Entries after “also recorded” stand apart in the source; their conditions may differ. Where two headings read alike, the source gives them in different places.

How the values were obtained:
[1] = test system: P. falciparum mature gametocytes / male gamete exflagellation; assay: P. falciparum exflagellation assay; type: cell-based, Plasmodium falciparum; settings: for inhibition at 10 µM: Plasmodium falciparum
Protocol: After 24 h, exflagellation was triggered by a temperature decrease to ∼21°C and observed 20 min later under the microscope. Highly motile exflagellation centres were recorded for ∼50–150 adjacent fields of view and reported per 10,000 RBCs.
(§1) (A) Assays examined exflagellation (P. falciparum), ookinete formation (P. berghei), or oocyst formation (P. falciparum). All antimalarials were screened at 10 µM. (B) The biological content of the in vitro P. berghei ookinete assay spans gamete formation, fertilization, zygote development, and ookinete formation. […] (D) The in vitro P. falciparum exflagellation assay exposes mature gametocytes to antimalarials for 24 h before triggering exflagellation. […] All experiments in triplicate. (E) The in vivo P. falciparum oocyst assay differs from the P. berghei oocyst assay in that mature gametocytes were exposed to the antimalarials in culture for 24 h before feeding to mosquitoes.

Plasmodium oocysts = assay: Oocyst development / sporogony, Plasmodium species not stated at the place; type: in vivo; settings: for inhibition at 10 µM: Plasmodium, box linked to oocysts, read-out: Inhibition at 10 μM (oocysts, Figure 5); for effect on sporogony / oocyst production: species not given
Protocol: (§2) Membrane feeds were performed as described previously. Briefly, PbGFPcon-infected mouse blood was mixed with compounds, immediately placed into membrane feeders (39°C) and offered for 30 min to 80–100 overnight-starved A. stephensi (SDA 500 strain). After 7–9 d at 19°C/80%RH, mosquito midguts were dissected out. Midguts were fixed with paraformaldehyde and oocyst number was determined microscopically by semi-automated analysis as previously described.
Gametocyte cultures were produced according to the same protocol as the Pf exflagellation assay. Pooled gametocyte cultures were evenly divided between compounds in fresh medium and incubated at 37°C for 24 h. The parasite pellets were then resuspended in fresh RBCs and human serum treated with the compounds to a 50% haematocrit and immediately fed to mosquitoes as described above and then maintained at 27°C/60%RH for 10–12 d before dissection and counting. […]

[2] = test system: P. falciparum and P. vivax; parameters: method as in personal communication, MMV; settings: phase IIa, P. falciparum and P. vivax patients; ref personal communication, MMV; cited from earlier work
[3] = test system: P. yoelii liver stage parasites (liver schizonts); assay: P. yoelii liver stage assay in HepG2 cells (EEF immunofluorescence); type: cell-based, Plasmodium yoelii; settings: Plasmodium yoelii
Protocol: (§3) 7.5×10^3 HepG2 cells in 50 µl of medium (1.5×10^5 cells/ml) were seeded in 384 well plates (Aurora 384 IQ-EB Black/Clear Plates) 20–26 h prior to the actual infection. 2 h prior to infection, 50 nl of compound in DMSO (0.1% final DMSO concentration per well) were transferred with a PinTool (GNF Systems) into the assay plates (10 µM final concentration). P. yoelii sporozoites were freshly dissected from infected A. stephensi mosquito salivary glands and filtered twice with a 40-µm strainer. The HepG2 cells were then infected with 8×10^3 sporozoites per well. After infection and 1-h incubation at 37°C, the cultures were washed, new media and compound added, and further incubated with 5-fold increased concentration of penicillin/streptomycin for 48 h at 37°C before exoerythrocytic forms (EEFs) quantification of infected cells by immunofluorescence.
After washing with 1×PBS and fixation of the cells with 4% paraformaldehyde solution (EMS), membranes were permeabilised with 0.5% Triton-X-100 (Thermo Fisher Scientific) and EEFs were stained using a mouse polyclonal serum raised against the Plasmodium heat shock protein 70 (HSP70), an Alexa goat antimouse IgG, Fca-specific DyLight 649 secondary antibody (Invitrogen), and the Hoechst 33342 nucleic acid dye (Invitrogen). Stained EEFs were then quantified using the Opera Confocal High Content Screening system (PerkinElmer). Images were collected using a 20× magnification at a binning of 2 using a 365 Xeon arc lamp illumination to detect the nuclei and 635-nm laser line to excite DyLight649.
(§4) High-content imaging of infected HepG2-CD81 cells was performed as described in Meister et al.. Wells were analysed using a custom Acapella (PerkinElmer) script parameterized for this assay. In brief, images from fields inside the well were first discarded as out of focus when the intensity in the nuclear area was too low. Then hepatic cells were counted by detecting the nuclei labelled with Hoechst 33342 and parasites were segmented using the HSP70 immuno-labelling. Morphology-based (e.g., area, roundness) and intensity-based features were calculated for each object detected including the hepatocyte nuclei and the parasites. Parasitemia was set as the ratio between parasite number (Alexa fluor positive) and the hepatocyte nuclei count, determined at the same time.
(§5) When an infected mosquito bites a host, ∼100 sporozoites may be injected into the dermis from where they rapidly invade liver cells,[33]. This infective step represents the second bottleneck during transmission and therefore another potentially vulnerable point for intervention. In the absence of a practical liver stage assay measuring the formation of P. falciparum/P. vivax liver schizonts, an equivalent assay was developed in P. yoelii and used to assess the activity of the collection of molecules against this specific stage. Specifically, P. yoelii sporozoites were dissected from the salivary glands of infected mosquitoes and were allowed to invade human hepatocarcinoma cells expressing the CD81 protein. The development of the liver schizonts was monitored by immunofluorescence staining using an HSP70 antibody specific to the parasite (Figure 4A).
Figure 4 Validation and results of anti-infectives tested against P. yoelii liver stage parasites. (A) Opera-generated images from a time point experiment using a 20× objective lens. P. yoelii parasites (red) were visualized using a mouse polyclonal HSP70 antibody, and the HepG2 cells (green) were stained with Hoechst 33342 nucleic acid dye. […] (B) A dose response plot with atovaquone from data generated from the Opera imaging system. The median areas of compound-treated parasites were compared to untreated DMSO controls to determine the degree of inhibition.

[4] = parameters: method as in PMID 22759078, PMID 17053895, PMID 18694333, PMID 18840754, PMID 19776738; settings: human blood, therapeutic / relevant doses; cited from earlier work
[5] = test system: P. berghei ookinete formation; assay: P. berghei ookinete development assay; type: cell-based; settings: Plasmodium berghei; medium throughput fluorescent ookinete assay
[6] = test system: P. falciparum asexual blood stage parasites (strains NF54, D6, K1, W2, 7G8, TM90C2A, V1/S); assay: [3H]-hypoxanthine incorporation growth inhibition assay, asexual blood stage; type: cell-based, Plasmodium falciparum
Protocol: In vitro antimalarial activity was measured using the [^3H]-hypoxanthine incorporation assay with various strains of P. falciparum obtained from MR4. Results were expressed as the concentration resulting in 50% inhibition (IC50).
The half-maximal inhibitory concentrations (IC50) were determined for each molecule (Table S2).
Figure 2 The potencies of selected antimalarials against asexual blood stages. Main classes of antimalarials were tested against the blood stage of seven Plasmodium falciparum strains in the [^3H]hypoxanthine incorporation assay as described in Vennerstrom et al.. The strains tested here (obtained from MR4) were two drug-sensitive strains NF54 and D6 and five drug-resistant strains: K1, resistant to chloroquine (CQ) and pyrimethamine (PYR), origin Thailand, carries mutations in genes pfmdr1, pfcrt, pfdhfr, pfdhps; W2, resistant to CQ, PYR, quinine, cycloguanil, and sulfadoxine, origin Vietnam; 7G8, resistant to CQ and PYR, origin Brazil; TM90C2A, resistant to CQ, PYR, and MFQ, origin Thailand; and V1/S, resistant to CQ, PYR and cycloguanil, origin Vietnam. Results are expressed as the concentration resulting in 50% growth inhibition (IC50).Values are means of ≥3 independent experiments. (A) Endoperoxides. (B) 4-AQs. (C) 8-AQs and amino alcohols. (D) Antifolates, antibiotics, and others.

[7] = test system: P. berghei ookinete formation; assay: P. berghei ookinete development assay; type: cell-based, Plasmodium berghei; settings: for effect on ookinete formation: 10 µM; for inhibition at 10 µM: Plasmodium berghei, box linked to ookinete, read-out: Inhibition at 10 μM (ookinete, Figure 5)
Protocol: Compounds and P. berghei gametocyte-infected blood were dispensed in a 96-well plate containing ookinete medium. After 24 h at 19°C, Giemsa-stained ookinetes were counted under the microscope (×40) as previously described,[28].
as §1, with “Figure 3 The transmission-blocking potential of selected antimalarials in three bioassays that cover different phases of Plasmodium vector stage development. (A)” for “(A)”, “formation. Ookinete formation was insensitive to most of the antimalarials tested.” for “formation.”, “mosquitoes. […] NPC1161-B, lumefantrine, halofantrine, and mefloquine +RS isomer were also active. (n = 4–61 observations; average ± standard error of the mean [SEM]).” for “mosquitoes.”

[8] = test system: P. falciparum oocyst formation; assay: Standard membrane feed assay, P. falciparum oocysts in A. stephensi; type: in vivo, Plasmodium falciparum; settings: 10 µM, gametocytes exposed 24 h before feeding
Protocol: Gametocyte cultures were produced according to the same protocol as the Pf exflagellation assay. Pooled gametocyte cultures were evenly divided between compounds in fresh medium and incubated at 37°C for 24 h. The parasite pellets were then resuspended in fresh RBCs and human serum treated with the compounds to a 50% haematocrit and immediately fed to mosquitoes as described above and then maintained at 27°C/60%RH for 10–12 d before dissection and counting.
as §1, with “Figure 3 The transmission-blocking potential of selected antimalarials in three bioassays that cover different phases of Plasmodium vector stage development. (A)” for “(A)”, “formation. Ookinete formation was insensitive to most of the antimalarials tested.” for “formation.”, “mosquitoes. […] NPC1161-B, lumefantrine, halofantrine, and mefloquine +RS isomer were also active. (n = 4–61 observations; average ± standard error of the mean [SEM]).” for “mosquitoes.”

[9] = test system: P. berghei oocyst formation; assay: Standard membrane feed assay, P. berghei oocysts in A. stephensi; type: in vivo, Plasmodium berghei; settings: for transmission-blocking effect on P. berghei oocysts (words): 10 µM
Protocol: as §2
Supplementary file pmed.1001169.s001.tif: Figure S1 The transmission-blocking potential of selected compounds against P. berghei in standard membrane feeding assays. All antimalarials were screened at 10 µM in triplicate in independent experiments. The biological content of this assay spans gamete formation through to occyst development all within the gut of the mosquito. […] (TIF) Click here for additional data file.

HepG2 cells = assay: Growth retardation of HepG2 cells
Protocol: as §3, §4, §5

[10] = 10 µM, 24 h exposure of mature gametocytes
[11] = 10 μM, box linked to gametocytes/exflagellation, read-out: Inhibition at 10 μM (gametocytes/exflagellation, Figure 5)
[12] = HepG2, box linked to liver schizont, read-out: IC50 (liver schizont, Figure 5)
[13] = read-out: inhibition of exflagellation, 10 µM, 24 h exposure of mature gametocytes

| Structure (SMILES) | effect on exflagellation (words) [1, 10] | inhibition at 10 µM [1, 11] [%] | inhibition at 10 µM (Plasmodium oocysts) [%] | effect on sporogony / oocyst production (Plasmodium oocysts) | IC50 [3, 12] [nM] | Cmax [4] [µM] | IC50 [5] [nM] | effect on ookinete formation [7] | inhibition at 10 µM [7] [%] | transmission-blocking effect on P. falciparum oocysts (words) [8] | inhibition at 10 µM [1, 13] [%] | other results |
| --- | --- | --- | --- | --- | --- | --- | --- | --- | --- | --- | --- | --- |
| c1cc([C@H]2CC[C@]3(CC2)OO[C@]2(O3)C3CC4CC(C3)CC2C4)ccc1OCCN1CCOCC1 [OZ439] | strong inhibitors of gametocyte maturation/gamete formation | > 60 | > 90 | impact sporogony |  |  |  |  |  |  |  | clinical efficacy [2]: equivalent efficacy in the treatment of P. falciparum and P. vivax patients |
| CO[C@H]1O[C@@H]2O[C@@]3(C)CC[C@H]4[C@H](C)CC[C@@H]([C@H]1C)[C@@]24OO3 [artemether] |  |  |  |  | < 1000 | 0.1 |  |  |  |  |  |  |
| O=C1C(O)=C([C@H]2CC[C@H](c3ccc(Cl)cc3)CC2)C(=O)c2ccccc21 [atovaquone] |  |  |  |  | < 1000 |  | 65 | strongly inhibited ookinete formation | > 80 |  |  | potency range against blood stages ([6]; P. falciparum blood stages): subnanomolar range; IC50 ([6]; Plasmodium falciparum, Erythrocyte, box linked to blood stage schizont, read-out: IC50 (erythrocyte schizont, Figure 5)): < 1 nM; fold difference in potency between strains ([6]; between the strains D6 and V1/S): ≤ 10 fold |
| CCCCN(CCCC)CC(O)c1cc(Cl)cc2c1-c1ccc(Cl)cc1/C2=C/c1ccc(Cl)cc1 (stereo not drawn) [lumefantrine] | only moderate or no inhibition of exflagellation |  | > 90 | impairs development in the vector |  | 13.9 |  | little activity |  | active; also recorded: impaired sporogony |  | IC50 ([6]; Plasmodium falciparum): < 4 nM; effect on exflagellation (words) ([1]; 10 µM, 24 h exposure of mature gametocytes, listed as Lumefantrine): little activity; transmission-blocking effect on P. falciparum oocysts (words) ([8]; listed as Lumefantrine): showed activity; transmission-blocking effect on P. berghei oocysts (words) [9]: impaired sporogony; also recorded: most notable transmission-blocking activity; transmission-blocking effect on P. berghei oocysts (words) ([9]; listed as Lumefantrine): showed activity; inhibition at 10 µM ([9]; Plasmodium berghei): > 90% |
| OC(c1cc(C(F)(F)F)nc2c(C(F)(F)F)cccc12)C1CCCCN1 (stereo not drawn) [mefloquine (+RS)] |  | > 60 | > 90 |  |  |  |  |  |  | totally blocked transmission | > 80 | IC50 ([6]; strain not specified): < 10 nM; transmission-blocking effect on P. falciparum oocysts (words) ([8]; listed as mefloquine +RS isomer): active |
| COc1ccc2nc3cc(Cl)ccc3c(Nc3cc(CN4CCCC4)c(O)c(CN4CCCC4)c3)c2n1 [pyronaridine] | inhibited P. falciparum exflagellation | > 60 |  |  | < 1000 |  | 6000 | strongly inhibited ookinete formation | > 80 |  | > 80 | IC50 ([3]; HepG2, development of P. yoelii liver schizonts following infection of HepG2 cells, read-out: IC50 Parasite): 270 ± 130 nM; IC50 ([3]; HepG2, dose response, read-out: IC50 liver stage): < 3000 nM; IC50 ([6]; Plasmodium falciparum, asexual blood stage, all parasite lines): 2 to 10 nM; effect on exflagellation (words) ([1]; 10 µM, 24 h exposure of mature gametocytes, listed as Pyronaridine): inhibited exflagellation totally; IC50 (HepG2 cells; Homo sapiens, HepG2, read-out: IC50 HepG2): < 170 nM; CI (cytotoxicity index) (HepG2 cells; IC50 HepG2 compared to IC50 parasite): <0.63 |
